Source: ChEMBL document CHEMBL3585280, “2-Aminopyridines with a Truncated Side Chain To Improve Human Neuronal Nitric Oxide Synthase Inhibitory Potency and Selectivity” (J Med Chem, 2015)

How the values were obtained:
Type in all cases: ADME, organism-based
[1] = Cmax in BALB/c mouse plasma at 2 mg/kg, iv; parameters: dose 2 mg/kg, route intravenous
[2] = Cmax in BALB/c mouse brain at 2 mg/kg, iv; parameters: dose 2 mg/kg, route intravenous
[3] = tested on: Brain; assay: AUClast in BALB/c mouse brain at 2 mg/kg, iv; conditions: in vivo
[4] = tested on: Brain; assay: AUClast in BALB/c mouse brain at 10 mg/kg, po; conditions: in vivo

`CNCCN(C)c1cc(C#N)cc(CCc2cc(C)cc(N)n2)c1` gave a Cmax [1] of 472 ng/mL, a Cmax [2] of 100 ng/g and an AUClast [3] of 789.07 ng·h/g. The AUClast [4] was 673.67 ng·h/g.
